Structures can show the parent of a compound that is named as a salt.
Design: species or system Hunden
Details: dog, in vivo, 0 min
Text: Die verhältnismässig einfache Synthese führt zu einer bemerkenswert hohen Ausbeute des erfinderischen Moleküls, der Metoprololnicotinsäure. Die an Hunden experimentierte Prodrugwirkung in drei verschiedenenen Dosen ergab folgende Retardwerte: (µg freie Base im Zielkompartiment)
Das Resultat zeigt, dass eine relativ hohe Konzentration im Plasma bis zu vier Stunden erwartet werden kann, was die deutlich retardierte Prodrugwirkung beweist. Die Dosis C zeigt unter anderem, dass auch kleine Konzentrationen einen langanhaltenden Spiegel zeigen.

COCCc1ccc(OCC(CNC(C)C)OC(=O)c2cccnc2)cc1 (racemic) [Metoprololnicotinsäure, Metoprololnicotinsäureester-HCl]
freie Base im Zielkompartiment (Retardwerte): 0 µg

From patent EP0472800A1, “Metoprololnicotinic acid ester, method of preparation and pharmaceutical use” (Sandmeier, Peter, Dr., priority 1990, dated 1992)
